Legend:
[1] = system: CROT gene expression; test: Expression of CROT in rat epidermal split containing sebaceous glands after topical PPARgamma agonist, real-time PCR; format: in vivo; settings: topical 1% in acetone, female Fuzzy rats, standardized to 18S, versus carrier group; for CROT Relative induction - Kinetics (Hours) 0: 0 hours; for CROT Relative induction - Kinetics (Hours) 8: 8 hours; for CROT Relative induction - Kinetics (Hours) 24: 24 hours; for CROT Relative induction - Kinetics (Hours) 48: 48 hours; for CROT Relative induction - Kinetics (Hours) 96: 96 hours
Description: Animals: Species: rat • Strain: Ico: Hsd: FUZZY-fz • Gender: female • Age: 10 weeks
Number per batch: 40 (8 animals per group)
Treatment: Route of administration: topical • Compound/batch: PPARgamma agonists:
A: 5-{4-[2-(methylpyridin-2-ylamino)ethoxy]-benzyl}thiazolidine-2,4-dione
B: (2-methoxyethoxymethoxy)naphthalene-2-carboxylic acid [4′-(2,4-dioxothiazolidin-5-ylmethyl)biphenyl-3-ylmethyl]methylamide or rosiglitazone
C: (S)-2-ethoxy-3-{4-[6-(3-heptyl-1-methyl-ureido)pyridin-2-yl]phenyl}propionic acid • Doses: 1% • Carrier: acetone (001) • Duration 96 hours
Method of evaluation: The animals are weighed at the beginning and at the end of the study. Skin biopsies are taken (6 samples of skin excised per rat) in order to analyse the expression of the genes (RNA extraction, reverse transcriptase and real-time PCR). The samples are stored overnight at 4° C. before incubation in 1M sodium bromide (NaBr) for 2 hours at 37° C. After incubation, the samples are separated into epidermis or dermis. The epidermal samples are stored at […]. Under these conditions, the sebaceous glands are in the epidermal split. PCRs are carried out, beginning with the CNAs originating from the epidermal splits containing sebaceous glands from control rats or rats treated with a PPARγ agonist: the mRNA is extracted using a column and quantified. The quality of the mRNAs is measured and is represented by the 18S/28S ratio. The results are standardized with respect to 18S, expressed as relative induction versus untreated animals (carrier group). The statistical analysis is obtained using internal software based on a modified Monte Carlo statistical analysis.

[2] = system: CROT (carnitine O-octanoyltransferase) gene expression; test: Expression of CROT in Fuzzy rat epidermal split after 8 days of topical treatment, Affymetrix transcriptome analysis; format: in vivo; settings: female Fuzzy rats, topical 1% once a day for 8 days, Affymetrix 1368426_at, control condition 601
Method: Fuzzy rat epidermal split expression data
The studies are carried out in female Fuzzy rats (Hsd: Fuzzy-fz) ten weeks old at the beginning of the study. The animals are treated at a dose of 1% (PPARg agonist rosiglitazone in solution in acetone) once a day for 8 days. Two hours after the final treatment, the animals are sacrificed by euthanasia and the skin on the back is removed. After incubation in dispase, the epidermis carrying the sebaceous glands is detached from the dermis (epidermal split). After grinding of the samples, the mRNA is prepared using Qiagen columns, in accordance with the supplier's instructions. The material thus prepared is subjected to large-scale transcriptome analysis on an Affymetrix platform. The data are subsequently standardized and, after statistical analysis, the results produced are expressed in arbitrary expression units (see below) accompanied, for each piece of data, by a statistical value for presence of the transcript (presence=1; absence=0).
Table 2: Measurement of the Expression of CROT in an Epidermal Split after 8 Days of Topical Treatment of FUZZY Rat Females with a PPARγ Agonist (Rosiglitazone) at 1%

Row | SMILES | CROT Relative induction - Kinetics (Hours) 0 [1] | CROT Relative induction - Kinetics (Hours) 8 [1] | CROT Relative induction - Kinetics (Hours) 24 [1] | CROT Relative induction - Kinetics (Hours) 48 [1] | CROT Relative induction - Kinetics (Hours) 96 [1] | Expression after treatment with 1% rosiglitazone [2]
1 | CN(CCOc1ccc(CC2SC(=O)NC2=O)cc1)c1ccccn1 (centres unmarked) [A, 5-{4-[2-(methylpyridin-2-ylamino)ethoxy]-benzyl}thiazolidine-2,4-dione] | 1 | 2.24 | 2.16 | 1.54 | 0.94 | –
2 | CCCCCCCNC(=O)N(C)c1cccc(-c2ccc(C[C@H](OCC)C(=O)O)cc2)n1 [C, (S)-2-ethoxy-3-{4-[6-(3-heptyl-1-methyl-ureido)pyridin-2-yl]phenyl}propionic acid] | 1 | 0.40 | 0.52 | 0.36 | 0.20 | –
3 | CN(CCOc1ccc(CC2SC(=O)NC2=O)cc1)c1ccccn1 (centres unmarked) [rosiglitazone] | – | – | – | – | – | 742 arbitrary expression units
